Key:
Assay in all cases: relative viability (nuclei count vs DMSO), 5 days (fraction); higher = more cells survive
HCC-44 = system: HCC-44
Summary of the method: (§1)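 A single step with final 0.05% Triton X-100, 1% formaldehyde and 1 ug/ml Hoechst fixed the cells and stained nuclei 5 days after treatment. Lung cancer cell lines in 1536-well plates had been treated by pin tool the day after seeding with one drug alone or a fixed anchor-drug dose plus five library-drug doses (not always all listed) in √10 steps, and nuclei were counted on 4× images. Relative viability is the ratio of nuclei in treated wells to nuclei in vehicle wells, taken as the median of duplicate plates.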

NCI-H2023 = system: NCI-H2023
Summary of the method: as §1

LC-2-ad = system: LC-2-ad
Summary of the method: as §1

UMC-11 = system: UMC-11
Summary of the method: as §1

ABC-1 = system: ABC-1
Summary of the method: as §1

PC-14 = system: PC-14
Summary of the method: as §1

SW 1573 = system: SW 1573
Summary of the method: as §1

COR-L23 = system: COR-L23
Summary of the method: as §1

NCI-H2085 = system: NCI-H2085
Summary of the method: as §1

NCI-H358 = system: NCI-H358
Summary of the method: as §1

EPLC-272H = system: EPLC-272H
Summary of the method: as §1

NCI-H1993 = system: NCI-H1993
Summary of the method: as §1

HOP-62 = system: HOP-62
Summary of the method: as §1

NCI-H1355 = system: NCI-H1355
Summary of the method: as §1

NCI-H838 = system: NCI-H838
Summary of the method: as §1

LU99A = system: LU99A
Summary of the method: as §1

NCI-H650 = system: NCI-H650
Summary of the method: as §1

HCC-15 = system: HCC-15
Summary of the method: as §1

NCI-H1915 = system: NCI-H1915
Summary of the method: as §1

HARA = system: HARA
Summary of the method: as §1

NCI-H2347 = system: NCI-H2347
Summary of the method: as §1

NCI-H1651 = system: NCI-H1651
Summary of the method: as §1

NCI-H2126 = system: NCI-H2126
Summary of the method: as §1

## COc1nc(C)cnc1NS(=O)(=O)c1cccnc1-c1ccc(-c2nnco2)cc1 [Zibotentan] + CCNC(=O)c1noc(-c2cc(C(C)C)c(O)cc2O)c1-c1ccc(CN2CCOCC2)cc1 [Luminespib] (partner 0.01 µM)
HCC-44; first compound 0.08 µM
  relative viability: 1.63
HCC-44; first compound 0.8 µM
  relative viability: 1.07
HCC-44; first compound 2.53 µM
  relative viability: 1.08
NCI-H2023; first compound 0.08 µM
  relative viability: 0.856
NCI-H2023; first compound 0.253 µM
  relative viability: 0.455
NCI-H2023; first compound 0.8 µM
  relative viability: 0.645
NCI-H2023; first compound 2.53 µM
  relative viability: 0.799
LC-2-ad; first compound 0.08 µM
  relative viability: 1.25
LC-2-ad; first compound 0.8 µM
  relative viability: 1.32
LC-2-ad; first compound 2.53 µM
  relative viability: 1.06
UMC-11; first compound 0.08 µM
  relative viability: 1.1
UMC-11; first compound 0.253 µM
  relative viability: 0.974
UMC-11; first compound 0.8 µM
  relative viability: 0.978
UMC-11; first compound 2.53 µM
  relative viability: 0.997
ABC-1; first compound 0.08 µM
  relative viability: 0.48
ABC-1; first compound 0.8 µM
  relative viability: 0.694
ABC-1; first compound 2.53 µM
  relative viability: 0.696
PC-14; first compound 0.08 µM
  relative viability: 0.135
PC-14; first compound 0.8 µM
  relative viability: 0.151
PC-14; first compound 2.53 µM
  relative viability: 0.128
SW 1573; first compound 0.08 µM
  relative viability: 0.341
SW 1573; first compound 0.8 µM
  relative viability: 0.348
SW 1573; first compound 2.53 µM
  relative viability: 0.269
COR-L23; first compound 0.08 µM
  relative viability: 0.879
COR-L23; first compound 0.253 µM
  relative viability: 0.656
COR-L23; first compound 0.8 µM
  relative viability: 0.719
COR-L23; first compound 2.53 µM
  relative viability: 0.667
NCI-H2085; first compound 0.08 µM
  relative viability: 0.386
NCI-H2085; first compound 0.253 µM
  relative viability: 0.423
NCI-H2085; first compound 0.8 µM
  relative viability: 0.42
NCI-H2085; first compound 2.53 µM
  relative viability: 0.463
NCI-H358; first compound 0.08 µM
  relative viability: 0.302
NCI-H358; first compound 0.8 µM
  relative viability: 0.435
NCI-H358; first compound 2.53 µM
  relative viability: 0.555
EPLC-272H; first compound 0.08 µM
  relative viability: 0.234
EPLC-272H; first compound 0.253 µM
  relative viability: 0.376
EPLC-272H; first compound 0.8 µM
  relative viability: 0.272
EPLC-272H; first compound 2.53 µM
  relative viability: 0.254
NCI-H1993; first compound 0.08 µM
  relative viability: 0.667
NCI-H1993; first compound 0.253 µM
  relative viability: 0.978
NCI-H1993; first compound 0.8 µM
  relative viability: 0.839
NCI-H1993; first compound 2.53 µM
  relative viability: 0.949
HOP-62; first compound 0.08 µM
  relative viability: 0.911
HOP-62; first compound 0.253 µM
  relative viability: 0.869
HOP-62; first compound 0.8 µM
  relative viability: 0.906
HOP-62; first compound 2.53 µM
  relative viability: 0.956
NCI-H1355; first compound 0.08 µM
  relative viability: 0.738
NCI-H1355; first compound 0.253 µM
  relative viability: 0.719
NCI-H1355; first compound 0.8 µM
  relative viability: 0.773
NCI-H1355; first compound 2.53 µM
  relative viability: 0.75
NCI-H838; first compound 0.08 µM
  relative viability: 0.21
NCI-H838; first compound 0.253 µM
  relative viability: 0.212
NCI-H838; first compound 0.8 µM
  relative viability: 0.314
NCI-H838; first compound 2.53 µM
  relative viability: 0.313
LU99A; first compound 0.08 µM
  relative viability: 0.275
LU99A; first compound 0.253 µM
  relative viability: 0.242
LU99A; first compound 0.8 µM
  relative viability: 0.245
LU99A; first compound 2.53 µM
  relative viability: 0.243
NCI-H650; first compound 0.08 µM
  relative viability: 0.869
NCI-H650; first compound 0.253 µM
  relative viability: 0.667
NCI-H650; first compound 0.8 µM
  relative viability: 0.865
NCI-H650; first compound 2.53 µM
  relative viability: 0.856
HCC-15; first compound 0.08 µM
  relative viability: 0.244
HCC-15; first compound 0.253 µM
  relative viability: 0.114
HCC-15; first compound 0.8 µM
  relative viability: 0.4
HCC-15; first compound 2.53 µM
  relative viability: 0.365
NCI-H1915; first compound 0.08 µM
  relative viability: 0.939
NCI-H1915; first compound 0.253 µM
  relative viability: 0.873
NCI-H1915; first compound 0.8 µM
  relative viability: 0.754
NCI-H1915; first compound 2.53 µM
  relative viability: 0.809
HARA; first compound 0.08 µM
  relative viability: 0.731
HARA; first compound 0.253 µM
  relative viability: 0.705
HARA; first compound 0.8 µM
  relative viability: 0.636
HARA; first compound 2.53 µM
  relative viability: 0.836
NCI-H2347; first compound 0.253 µM
  relative viability: 0.382
NCI-H2347; first compound 0.8 µM
  relative viability: 0.426
NCI-H2347; first compound 2.53 µM
  relative viability: 0.452
NCI-H1651; first compound 0.08 µM
  relative viability: 0.802
NCI-H1651; first compound 0.253 µM
  relative viability: 0.484
NCI-H1651; first compound 0.8 µM
  relative viability: 0.958
NCI-H1651; first compound 2.53 µM
  relative viability: 0.796
NCI-H2126; first compound 0.08 µM
  relative viability: 0.978
NCI-H2126; first compound 0.8 µM
  relative viability: 0.896
NCI-H2126; first compound 2.53 µM
  relative viability: 0.919

Reference: the supplement of paper PMC10307832
